From ChEMBL document CHEMBL1135369, “Solid-phase synthesis of new saphenamycin analogues with antimicrobial activity” (2002)
≈ marks a conversion by molar mass, not a printed value. Calls of active or inactive are those of the source. The calls are words filed in the database; no cut-off is given here.

How the values were obtained:
Bacillus subtilis [1] = assay: Effect on Bacillus subtilis in plate diffusion test; No growth inhibition; assay type: functional, organism-based
Bacillus subtilis [2] = assay: Minimum inhibitory concentration against Bacillus subtilis; assay type: functional
Bacillus subtilis [3] = assay: Effect on Bacillus subtilis in plate diffusion test; + indicates clearance zones; assay type: functional, organism-based
Bacillus subtilis [4] = assay: Effect on Bacillus subtilis in plate diffusion test; ++ indicates Srong well defined clearance zone; assay type: functional, organism-based

CC(OC(=O)c1c(F)cccc1F)c1cccc2nc3c(C(=O)O)cccc3nc12 (configuration not stated) was tested, and the Activity (Bacillus subtilis [1]) was “No growth inhibition”.
In the case of CC(OC(=O)c1ccc(F)cc1)c1cccc2nc3c(C(=O)O)cccc3nc12 (configuration not stated), the MIC (Bacillus subtilis [2]) is reported as 3.93 µg/mL (≈ 10.1 µM) and the Activity (Bacillus subtilis [3]) is reported as “clearance zones”.
For CC(OC(=O)c1c(Cl)cccc1Cl)c1cccc2nc3c(C(=O)O)cccc3nc12 (configuration not stated), the MIC (Bacillus subtilis [2]) was 2.71 µg/mL (≈ 6.14 µM) and the Activity (Bacillus subtilis [3]) was “clearance zones”.
CC(OC(=O)c1ccccc1F)c1cccc2nc3c(C(=O)O)cccc3nc12 (configuration not stated) was tested, and the Activity (Bacillus subtilis [1]) was “No growth inhibition”.
Cc1cccc(C(=O)OC(C)c2cccc3nc4c(C(=O)O)cccc4nc23)c1OCc1ccccc1 (configuration not stated) was tested, and the MIC (Bacillus subtilis [2]) was 3.73 µg/mL (≈ 7.57 µM) and the Activity (Bacillus subtilis [3]) was “clearance zones”.
In the case of CC(OC(=O)c1cccc(F)c1)c1cccc2nc3c(C(=O)O)cccc3nc12 (configuration not stated), the Activity (Bacillus subtilis [1]) is reported as “No growth inhibition”.
In the case of Cc1ccc(OCc2ccccc2)c(C(=O)OC(C)c2cccc3nc4c(C(=O)O)cccc4nc23)c1 (configuration not stated), the Activity (Bacillus subtilis [1]) is reported as “No growth inhibition”.
In the case of Cc1ccc(C(=O)OC(C)c2cccc3nc4c(C(=O)O)cccc4nc23)c(OCc2ccccc2)c1 (configuration not stated), the Activity (Bacillus subtilis [1]) is reported as “No growth inhibition”.
For CC(OC(=O)c1ccccc1Cl)c1cccc2nc3c(C(=O)O)cccc3nc12 (configuration not stated), the MIC (Bacillus subtilis [2]) was 3.35 µg/mL (≈ 8.23 µM) and the Activity (Bacillus subtilis [3]) was “clearance zones”.
CC(OC(=O)c1cccc(Cl)c1)c1cccc2nc3c(C(=O)OC(C)c4cccc5nc6c(C(=O)O)cccc6nc45)cccc3nc12 (configuration not stated) was tested, and the MIC (Bacillus subtilis [2]) was 0.72 µg/mL (≈ 1.1 µM) and the Activity (Bacillus subtilis [4]) was “Srong well defined clearance zone”.
In the case of CC(OC(=O)c1c(Cl)cc(Cl)cc1Cl)c1cccc2nc3c(C(=O)O)cccc3nc12 (configuration not stated), the MIC (Bacillus subtilis [2]) is reported as 2.1 µg/mL (≈ 4.41 µM) and the Activity (Bacillus subtilis [4]) is reported as “Srong well defined clearance zone”.
In the case of CC(OC(=O)c1cccc(Cl)c1)c1cccc2nc3c(C(=O)O)cccc3nc12 (configuration not stated), the MIC (Bacillus subtilis [2]) is reported as 0.07 µg/mL (≈ 0.172 µM) and the Activity (Bacillus subtilis [4]) is reported as “Srong well defined clearance zone”.
With CC(OC(=O)c1ccccc1[N+](=O)[O-])c1cccc2nc3c(C(=O)O)cccc3nc12 (configuration not stated) the MIC (Bacillus subtilis [2]) was 2.49 µg/mL (≈ 5.97 µM) and the Activity (Bacillus subtilis [3]) was “clearance zones”.
C[S+](C)[O-] was tested, and the Activity (Bacillus subtilis [1]) was “inactive”.
